Measurements reported in publication PMC7762828 (Journal of medicinal chemistry, 2020).

Legend:
leukemia cell lines = test: CellTiter-Glo cell viability assay, panel of seven leukemia cell lines; type: cell-based; settings: 72 h, read-out: cell viability IC50
HL60 cells [1] = test: Western blot of protein acetylation in HL60 cells; type: cell-based; settings: HL60, 24 h, two concentrations, immunoblot
T-ALL cell line (HSB-2) = test: Combinatorial high throughput drug screen; type: cell-based
HL60 cells [2] = test: Annexin V-propidium iodide apoptosis assay; type: cell-based; settings: HL60, 24 h
Human recombinant HDAC4 = Human recombinant HDAC4 (Homo sapiens, UniProt P56524); test: HDAC4 inhibition assay; type: biochemical; settings: selectivity for HDAC6 over HDAC4
Sequence of Human recombinant HDAC4 (P56524 whole entry): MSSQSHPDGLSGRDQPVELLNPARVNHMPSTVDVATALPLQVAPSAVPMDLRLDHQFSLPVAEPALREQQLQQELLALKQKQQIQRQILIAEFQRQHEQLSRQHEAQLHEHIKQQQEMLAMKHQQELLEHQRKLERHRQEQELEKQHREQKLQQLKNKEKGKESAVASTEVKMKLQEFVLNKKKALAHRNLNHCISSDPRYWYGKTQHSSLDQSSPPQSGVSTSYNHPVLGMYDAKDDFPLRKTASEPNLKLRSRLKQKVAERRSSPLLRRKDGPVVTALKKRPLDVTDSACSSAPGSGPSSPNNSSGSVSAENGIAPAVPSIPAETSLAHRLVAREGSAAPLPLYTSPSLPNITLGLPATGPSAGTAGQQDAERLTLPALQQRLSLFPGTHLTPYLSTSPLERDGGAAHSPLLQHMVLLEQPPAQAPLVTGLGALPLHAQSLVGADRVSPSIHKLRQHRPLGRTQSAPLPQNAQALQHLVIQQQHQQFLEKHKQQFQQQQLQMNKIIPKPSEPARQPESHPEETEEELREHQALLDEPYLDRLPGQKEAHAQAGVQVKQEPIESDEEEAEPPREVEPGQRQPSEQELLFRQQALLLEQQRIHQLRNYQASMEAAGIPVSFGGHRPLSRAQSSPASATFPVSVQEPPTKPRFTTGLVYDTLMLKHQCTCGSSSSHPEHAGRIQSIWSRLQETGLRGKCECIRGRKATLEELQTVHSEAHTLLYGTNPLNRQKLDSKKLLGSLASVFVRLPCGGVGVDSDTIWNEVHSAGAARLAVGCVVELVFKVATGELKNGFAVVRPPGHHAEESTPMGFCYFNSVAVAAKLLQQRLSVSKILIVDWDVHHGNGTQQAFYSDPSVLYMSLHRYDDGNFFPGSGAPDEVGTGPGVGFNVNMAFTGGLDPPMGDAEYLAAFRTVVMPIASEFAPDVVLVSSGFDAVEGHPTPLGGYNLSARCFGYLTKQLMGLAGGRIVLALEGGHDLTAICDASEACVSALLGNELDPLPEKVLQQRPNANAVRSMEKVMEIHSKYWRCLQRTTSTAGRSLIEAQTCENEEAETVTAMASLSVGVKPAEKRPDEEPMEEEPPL

O=C(NO)c1ccc(CN(Cc2nnnn2Cc2ccccc2)C(=O)c2ccccc2C(F)(F)F)cc1 [6l]
IC50 (leukemia cell lines): > 20 µM | acetylation status of histone H3 (ac-H3), marker for class I HDAC inhibition (HL60 cells [1]): unaffected | α-tubulin acetylation (ac-α-tubulin), marker for HDAC6 inhibition (HL60 cells [1]): induced α-tubulin acetylation | cytotoxic activity in combination with anthracyclines (T-ALL cell line (HSB-2); HSB-2, 6l […] and 5 μM with epirubicin (Epi) and daunorubicin (Dauno)): significant enhancement of cytotoxic activity | cytotoxicity as single agent (T-ALL cell line (HSB-2); HSB-2, 6l alone): unable to affect the cytotoxicity | cytotoxic effect as single agent (number of viable cells) (HL60 cells [2]; 6l alone at 2.5 or 5 μM): no cytotoxic effect | apoptosis induction in combination with BTZ (late apoptotic/dead cells) (HL60 cells [2]; combination with bortezomib (BTZ) versus BTZ alone): augmented the apoptosis induction of BTZ | SI (HDAC4 vs HDAC6) (Human recombinant HDAC4): 1857
